What was measured:
[1] = test system: Diamond Back Moth (plutella xylostella); test: Diamond back moth (plutella xylostella) test, Chinese cabbage leaves dipped; type: in vivo; details: 3rd instar larvae on dipped cabbage leaves, recorded 24, 72, and 120 hours after treatment, read-out: mortality in comparison with untreated controls (diamond back moth)
Protocol: (§1) In the following tests, the formulated solutions of the active compounds were diluted to an active ingredient concentration of 300 ppm and the diluted solutions were applied in the below mentioned tests.
The active compound is dissolved at the desired concentration in a mixture of 1:1 (vol:vol) distilled water:acteon. The test solution is prepared at the day of use.
Leaves of Chinese cabbage were dipped in test solution and air-dried. Treated cabbage leaves were placed in petri dished lined with moist filter paper and 3rd instar larvae were added. Mortality was recorded 24, 72, and 120 hours after treatment.

[2] = test system: Southern Armyworm (Spodoptera eridania), 2nd Instar Larvae; test: Southern armyworm (Spodoptera eridania) test, Sieva lima bean leaves dipped; type: in vivo; details: 96 h, 2nd instar larvae on dipped lima bean leaves, at 4 days, read-out: mortality in comparison with untreated controls (southern armyworm)
Protocol: as §1
The active compounds were formulated in 50:50 acetone:water (vol) and 100 ppm Kinetica™ surfactant.
A pair of first true leaves of Sieva lima bean was dipped into the test solution and allowed to dry. The leaves were then placed in a plastic perforated zip enclosure bag and ten 2nd instar larvae were added. At 4 days, observations were made of mortality and reduced feeding.

[3] = test system: Cotton Aphid (Aphis gossypii); test: Cotton aphid (Aphis gossypii) test, infested cotton cotyledons dipped in test solution; type: in vivo; details: 120 h, determined after 5 days, read-out: mortality of cotton aphid (Aphis gossypii, mixed life stages) in comparison with untreated controls
Protocol: (§2) If not otherwise described, the active compounds were formulated in a mixture of 50 vol.-% acetone:50 vol.-% water. A nonionic surfactant (Kinetic®) was included in the solution at a volume of 0.01% v/v.
as §1
Cotton plants at the cotyledon stage were infested prior to treatment by placing a heavily infested leaf from the main aphid colony on top of each cotyledon. The aphids were allowed to transfer overnight and the host leaf was removed. The infested cotyledons were then dipped and agitated in the test solution for 3 seconds and allowed to dry in a fume hood. Test plants were maintained under fluorescent lighting in a 24-hr photoperiod at 25° C. and 20-40% relative humidity. Aphid mortality on the treated plants, relative to mortality on untreated check plants, was determined after 5 days.

[4] = test system: Cowpea Aphid (aphis craccivora); test: Cowpea aphid (aphis craccivora) test, colonized potted cowpea plants sprayed; type: in vivo; details: assessed after 24, 72, and 120 hours, read-out: mortality in comparison with untreated controls (cowpea aphid)
Protocol: as §1
The active compound is dissolved at the desired concentration in a mixture of 1:1 (vol:vol) distilled water:acetone. The test solution is prepared at the day of use.
Potted cowpea plants colonized with approximately 100-150 aphids of various stages were sprayed after the pest population has been recorded. Population reduction was assessed after 24, 72, and 120 hours.

[5] = test system: Green Peach Aphid (Myzus persicae); test: Green peach aphid (Myzus persicae) test, infested bell pepper leaves dipped in test solution; type: in vivo; details: 120 h, determined after 5 days, read-out: mortality of green peach aphid in comparison with untreated controls
Protocol: as §2, §1
Bell pepper plants at the first true-leaf stage were infested prior to treatment by placing heavily infested leaves from the main aphid colony on top of the treatment plants. The aphids were allowed to transfer overnight to accomplish an infestation of 30-40 aphids per plant and the host leaves were removed. The infested leaves of the test plants were then dipped and agitated in the test solution for 3 seconds and allowed to dry in a fume hood. Test plants were maintained under fluorescent lighting in a 24-hr photoperiod at 25° C. and 20-40% relative humidity. Mortality on the treated plants, relative to mortality on untreated check plants, was determined after 5 days.

Compound	mortality at 300 ppm [3] [%]	mortality at 300 ppm [4] [%]	mortality at 300 ppm [5] [%]	also measured
Cc1cccc2snc(NC(=O)c3cc(C(F)(F)F)nn3-c3ncccc3Cl)c12 [compound 113]	–	–	–	mortality at 300 ppm [1]: > 89%; mortality at 300 ppm [2]: > 89%
COc1cccc2snc(N(C)C(=O)c3cc(Br)nn3-c3ncccc3Cl)c12 [compound 94]	≥ 89	> 89	–	–
CCN(C(=O)c1ccc(Cl)nc1)c1nsc2cccc(OC(F)F)c12 [compound 83]	–	–	≥ 89	–
CCCC(=O)N(CC)c1nsc2cccc(OC(F)F)c12 [compound 118]	≥ 89	> 89	≥ 89	–
CCN(C(=O)COC)c1nsc2cccc(OC(F)F)c12 [compound 77]	–	> 89	≥ 89	–
CC(=O)N(C)c1nsc2cccc(OC(F)F)c12 [compound 25]	–	–	≥ 89	–
O=C(Nc1nsc2cccc(OC(F)F)c12)c1cc(Br)nn1-c1ncccc1Cl [compound 89]	≥ 89	–	–	–
COc1cccc2snc(N=S(C)C)c12 [compound 125]	≥ 89	–	≥ 89	–
CN(C(=O)c1cc(Br)nn1-c1ncccc1Cl)c1nsc2cccc(OC(F)F)c12 [compound 92]	≥ 89	–	–	–
O=C(Nc1nsc2cccc(Cl)c12)c1cc(C(F)(F)F)nn1-c1ncccc1Cl [compound 75]	–	–	–	mortality at 300 ppm [2]: > 89%
COCC(=O)N(C)c1nsc2cccc(OC(F)F)c12 [compound 76]	–	> 89	≥ 89	–
CN(C(=O)c1cnccc1C(F)(F)F)c1nsc2cccc(OC(F)F)c12 [compound 91]	≥ 89	–	–	–
CCN(C(=O)c1cc(C(F)(F)F)nn1-c1ncccc1Cl)c1nsc2cccc(OC)c12 [compound 86]	≥ 89	–	–	–
CN(C(=O)c1ccc(C(F)(F)F)nc1)c1nsc2cccc(Cl)c12 [compound 108]	≥ 89	> 89	–	–
CN(C(=O)c1ccc(Cl)nc1)c1nsc2cccc(OC(F)F)c12 [compound 82]	–	> 89	≥ 89	–
O=C(Nc1nsc2cccc(Cl)c12)c1cc(Br)nn1-c1ncccc1Cl [compound 74]	–	–	–	mortality at 300 ppm [2]: > 89%
COCC(=O)N(C)c1nsc2cccc(Cl)c12 [compound 87]	≥ 89	> 89	≥ 89	–
COc1cccc2snc(N(C)C(=O)c3cnccc3C(F)(F)F)c12 [compound 105]	≥ 89	> 89	–	mortality at 300 ppm [1]: > 89%
CN(C(=O)c1cnccc1C(F)(F)F)c1nsc2cccc(Cl)c12 [compound 106]	≥ 89	> 89	–	–
O=C(Nc1nsc2cccc(Cl)c12)c1ccc(C(F)(F)F)nc1Cl [compound 115]	≥ 89	–	–	–
CCN(C(=O)c1cc(C(F)(F)F)nn1-c1ncccc1Cl)c1nsc2cccc(OC(F)F)c12 [compound 81]	–	> 89	–	–
CCN(C(=O)C(F)(F)F)c1nsc2cccc(OC(F)F)c12 [Compound example 26, N-(4-Difluoromethoxy-benzo[d]isothiazol-3-yl)-N-ethyl-2,2,2-trifluoro-acetamide]	–	–	–	melting point: 176 to 177 °C

Source: patent US8119568B2, “3-amino-1,2-benzisothiazole compounds for combating animal pest II” (BASF SE, priority 2007, dated 2012)
